Source: patent publication US20240207266A1, “METHODS FOR TREATING AND MONITORING PARKINSON'S DISEASE” (Denali Therapeutics Inc., priority 2021, published 2024)

How the values were obtained:
BMP(22:6/22:6) = test: Urine BMP(22:6/22:6) (lysosomal engagement, Phase 1/1b); format: in vivo, human; details: HVs and patients with PD
Description: BMP concentrations were normalized to creatinine concentrations (ng/mg).
Lysosomal lipid BMP 22:6/22:6 (referred to throughout the document as “BMP”) measured in urine represents a mechanistic marker of correction of the lysosomal pathways downstream of LRRK2. BMP is a lysosomal phospholipid found exclusively on the intraluminal vesicles of late endosomes and lysosomes (Bissig and Gruenberg, Cold Spring Harb Perspect Biol. 2013; 5(10):a016816). Individuals with genetic or drug-induced lysosomal function disorders, including those with G2019S LRRK2 mutations, have increased levels of urine BMP (Lecommandeur et al., J Lipid Res. 2017:58(7): 1306-14; Alcalay et al., Mov Disord. 2013; 28(14):1966-71).

[1] = CSF penetration, CSF/unbound plasma ratio (Phase 1/1b); format: in vivo, human
[2] = Phase 1b study in subjects with Parkinson's disease, safety and tolerability; format: in vivo, human
Description: This study was a double-blind, placebo-controlled, parallel-design Phase 1b study with 28-day dosing, administered once daily in Parkinson's disease patients.
GERD, gastroesophageal reflux disease: TEAE, treatment-emergent adverse event. ^aProcedural related includes (in order of frequency): procedural pain, post procedural contusion, post procedural hematoma, and procedural headache; ^bHypotension and orthostatic hypotension occurred in the same two patients.
A total of 36 patients with PD (26 active, 10 placebo) were treated with up to 300 mg QD for 28 days (FIG. 8).
This was a Phase 1b, randomized, placebo-controlled, double-blind study designed to determine the safety, tolerability, PK, and pharmacodynamics of compound I in subjects with PD. The conduct of this study has been completed and the clinical study report is in progress. In Part 1, subjects were administered compound I 80 mg or placebo QD (1:1 ratio) for 28 days (n=8). In Part 2, subjects were administered compound I 80 or 130 mg or placebo QD (1:2:1 ratio) for 28 days (n=17). In Part 3, subjects were administered compound I 300 mg or placebo QD (4:1 ratio) for 28 days (n=11).

[3] = Phase 1 first-in-human study, safety and tolerability, multiple-dose cohorts (Parts B, D, E); format: in vivo
Experimental: This double-blind, placebo-controlled Phase 1 study comprised single-ascending dose (SAD) and 10-day, 14-day, and 28-day multiple-ascending dose (MAD) parts in healthy volunteers. BID=twice daily; PBO=placebo; QD=once daily.
In a separate analysis of ≥1 TEAE in ≥2 subjects per treatment arm included the following additional TEAEs not listed above: ear pain (n=2; 105 mg QD 10-day cohort); nasopharyngitis (n=2; 225 mg QD 28-day cohort); asymptomatic COVID-19 (n=2; 400 mg BID 14-day cohort); somnolence (n=2; 250 mg BID 14-day cohort). 2 subjects also experienced presyncope associated with lumbar puncture (one each for 150 and 225 mg QD 28-day cohort).
In the Phase 1 study in healthy volunteers, the demographics of participants was as follows: • 184 HVs (145 active, 39 placebo) were treated with single or multiple once daily (QD) or twice daily (BID) doses up to 28 days in the following study Parts: • Part A (SAD; young HVs; n=48): 100% male and median age of 25 (range, 18-50) years; • Part B (10-day MAD; young HVs; n=80): 99% male and median age of 26.5 (range, 18-50) years; • Part C (SAD: elderly HVs; n=8): 50% male and median age of 69 (range, 67-74) years; • Part D (28-day MAD; young HVs; n=17): 100% male and median age of 29 (range, 18-39) years; and • E (14-day MAD: young HVs: n=31): 100% male and median age 30 (range 18-50) years.
This was a Phase 1, randomized, placebo-controlled, double-blind FIH study designed to determine the safety, tolerability. PK, and pharmacodynamics of compound I in healthy subjects.
Part B of this study was composed of sequential multiple ascending dose (MAD) cohorts. Healthy subjects were enrolled in 8 cohorts (Cohorts B1-B8; n=10/cohort) and were administered compound I 15, 30, 45, 70, 105, 150, 225, or 300 mg or placebo (4:1 ratio) QD for 10 days.
Part D was composed of a multiple-dose cohort (Cohort D1) of healthy subjects administered either compound I 225 mg (n=13) or placebo (n=4) QD for 28 days.
Part E is composed of sequential MAD cohorts. Healthy subjects in Cohort E1 were administered compound I 150 mg or placebo BID (4:1 ratio) for 14 days (n=9) and subjects in Cohort E2 were administered compound I 250 mg or placebo BID (4:1 ratio) for 14 days (n=11). Subjects in the ongoing Cohort E3 are being administered […] or placebo BID (4:1 ratio) for 14 days.

[4] = subjects with PD, 80, 130 or 300 mg QD for 28 days
[5] = subjects with PD, 80-300 mg QD for 28 days
[6] = Part B, healthy subjects, 15-300 mg QD for 10 days
[7] = Part D, healthy subjects, 225 mg QD for 28 days
[8] = Part E, healthy subjects, BID for 14 days

## CCNc1nc(Nc2cc(C(C)(C)n3nccn3)nn2C2CC2)ncc1C(F)(F)F [compound I, N2-(3-(2-(2H-1,2,3-triazol-2-yl)propan-2-yl)-1-cyclopropyl-1H-pyrazol-5-yl)-N4-ethyl-5-(trifluoromethyl)pyrimidine-2,4-diamine]
BMP(22:6/22:6)
  lysosomal lipid BMP 22:6 in urine: dose-dependent reduction
[1]
  CSF penetration based on the CSF/unbound plasma ratio: high CSF penetration
[2]; [4]
  SAEs or AESIs: No SAEs or AESIs were reported
  tolerability: generally well tolerated
[2]; [5]
  changes from baseline or trends in safety laboratory (including liver and renal function testing), ECG, neurological assessment, vital sign, PFT or C-SSRS results: No other clinically significant individual changes from baseline or notable trends
  subjects who experienced ≥1 TEAE: 23 (88.5%) subjects (%)
  subjects with moderate TEAEs: 5 (19%) subjects (%)
[2]; subjects with PD, 80 mg QD and 300 mg QD, resolved while on study drug
  additional subjects with TEAEs of mild orthostatic hypotension / mild hypotension plus orthostatic hypotension: Two additional subjects
[2]; subjects with PD, hypotension (130 mg QD), headache (300 mg QD), both considered not related to study drug
  subjects with severe TEAEs: Two subjects
[3]; FIG. 9 legend, one each for 150 and 225 mg QD 28-day cohort
  presyncope associated with lumbar puncture: 2 subjects
[3]; [6]
  changes in safety laboratory, vital signs, ECG, neurological examination, PFT or C-SSRS results: No clinically significant changes
  deaths, other SAEs, AESIs or TEAEs leading to study drug discontinuation: No deaths, other SAEs (serious adverse events), AESIs (adverse events of special interests), or treatment-emergent adverse events (TEAEs) leading to study drug discontinuation were reported
  subjects who experienced a severe TEAE: no subjects
  subjects who experienced ≥1 TEAE: 56 (86.2%) subjects (%)
  subjects who experienced ≥1 mild TEAE: 55 (84.6%) subjects (%)
  subjects who experienced ≥1 moderate TEAE: 9 (13.8%) subjects (%)
[3]; Part B, healthy subjects, multiple doses up to 300 mg QD for 10 days
  tolerability: generally well tolerated
[3]; [7]
  changes in safety laboratory, vital sign, ECG, neurological examination, PFT or C-SSRS results: No other clinically significant changes
  deaths, other SAEs or AESIs: No deaths, other SAEs, or AESIs were reported
  subjects who experienced a moderate or severe TEAE: no subjects
  subjects who experienced ≥1 TEAE: 10 (77%) subjects (%)
  subjects who experienced ≥1 mild TEAE: 10 (77%) subjects (%)
  tolerability: generally well tolerated
[3]; Part E, Cohorts E1 and E2, healthy subjects, 150 and 250 mg BID for 14 days
  tolerability: generally well tolerated
[3]; Part E, healthy subjects, 250 mg BID for 14 days
  subjects with moderate TEAEs: 2 subjects
[3]; [8]
  SAEs or AESIs: No SAEs or AESIs were reported
  changes in vital sign, ECG, telemetry, safety laboratory (including liver and renal function testing), PFT, neurological examination or C-SSRS results: No clinically significant changes
  subjects who experienced 1 TEAE: 25 (100.0%) subjects (%)
[3]; Part E, healthy subjects, one at 250 mg BID, one at 400 mg
  study-drug related discontinuations: Two study-drug related discontinuations
